The values that follow come from publication PMC10698726 (Molecular Pharmaceutics, 2023).

One series has as its target T1, OCT3 (Homo sapiens, UniProt O75751).
T1 construct: expressed in transfected cells; host or cells: HEK293
T1 sequence (O75751 1-556): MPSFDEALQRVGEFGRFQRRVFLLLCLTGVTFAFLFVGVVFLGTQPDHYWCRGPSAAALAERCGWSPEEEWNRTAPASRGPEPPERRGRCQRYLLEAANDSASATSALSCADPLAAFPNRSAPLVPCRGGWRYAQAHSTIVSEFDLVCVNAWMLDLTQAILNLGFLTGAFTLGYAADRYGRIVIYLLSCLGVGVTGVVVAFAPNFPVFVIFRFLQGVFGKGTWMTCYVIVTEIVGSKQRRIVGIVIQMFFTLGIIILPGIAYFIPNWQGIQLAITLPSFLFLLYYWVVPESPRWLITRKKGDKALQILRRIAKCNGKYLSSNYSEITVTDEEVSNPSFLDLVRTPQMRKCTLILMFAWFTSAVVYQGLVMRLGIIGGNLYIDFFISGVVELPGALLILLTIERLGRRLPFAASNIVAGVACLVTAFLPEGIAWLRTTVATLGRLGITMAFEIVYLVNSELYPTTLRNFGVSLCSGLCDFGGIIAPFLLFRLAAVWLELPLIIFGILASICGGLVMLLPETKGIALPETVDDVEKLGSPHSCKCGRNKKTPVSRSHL
The series can be described thus: Inhibition of model substrate uptake in OCT3-overexpressing HEK293 cells. It counts as cell-based. Here is the method: (§1) All experiments were carried out in transporter-overexpressing HEK293 cells. OCT1-, OCT2-, NET-, DAT-, and SERT-overexpressing cells as well as the empty-vector transfected control cell line were generated as described earlier,[26]−[28] whereas the OCT3-overexpressing HEK293 cells were generous gift of from Drs. Koepsell and Gorbulev (University of Würzburg, Germany). All cells were cultivated in Dulbecco’s modified Eagle’s medium (DMEM) supplemented with 10% (v/v) FCS, penicillin (100 U/mL), and streptomycin (100 μg/mL) and kept in culture for no longer than 30 passages.
(§2) As for the transport experiments, 300,000 HEK293 cells were plated in poly-D-lysine-coated 24-well plates 2 days ahead of the experiment. On every plate, two wells of empty vector (EV)-transfected cells were used as a control to account for the passive influx of the model substrate, and two wells of transporter-overexpressing cells were used to determine the noninhibited uptake of the model substrate. Cells were initially washed once with 37 °C HBSS+ and then incubated with 2 μM model substrate (0.2 μM for MPP^+ uptake by MATs) with and without 20 μM inhibitor for 5 min. For concentration-dependent inhibition experiments, the cells were incubated with increasing inhibitor concentrations. The incubation was terminated by aspiration of the buffer before cells were washed twice with ice-cold HBSS+ and lysed in 80% acetonitrile. Cell lysates were transferred into a black 96-well plate for the fluorescence measurement of ASP^+ or used for sample preparation for LC–MS/MS analysis. […] Fluorescence quantification was performed in technical duplicates.
(§3) Transporter-mediated net uptake was calculated as the difference between uptake in transporter-overexpressing cells and that in the empty-vector-transfected control. […] Vmax is the maximum transport velocity, while Km is defined as the substance concentration that is required to reach half of vmax. The ratio of vmax over Km is termed intrinsic clearance Clint. For inhibition experiments, the transport activity was calculated by using the following equation [drawing 1]
(§4) SubstrateEV refers to the passive uptake of model substrates into the control cells and substratenoninhibited is the uptake in transporter-overexpressing cells without the presence of any inhibitor. The percent inhibition values are then calculated as described in the following [drawing 2]
(§5) For concentration inhibition experiments, the transporter activity was plotted against the log10 of inhibitor concentrations, and the data were fitted by the following equation to determine IC50 values [drawing 3]
(§6) Y refers to the transporter activity, whereas Ymax is the maximum and Ymin is the minimal transporter activity. X is the log10 of inhibitor concentrations, IC50 is the half-maximal inhibitory concentration, and hill slope is the slope factor.

For a further series, the target named is T2, OCT2 (Homo sapiens, UniProt O15244).
T2 sequence (O15244 1-555): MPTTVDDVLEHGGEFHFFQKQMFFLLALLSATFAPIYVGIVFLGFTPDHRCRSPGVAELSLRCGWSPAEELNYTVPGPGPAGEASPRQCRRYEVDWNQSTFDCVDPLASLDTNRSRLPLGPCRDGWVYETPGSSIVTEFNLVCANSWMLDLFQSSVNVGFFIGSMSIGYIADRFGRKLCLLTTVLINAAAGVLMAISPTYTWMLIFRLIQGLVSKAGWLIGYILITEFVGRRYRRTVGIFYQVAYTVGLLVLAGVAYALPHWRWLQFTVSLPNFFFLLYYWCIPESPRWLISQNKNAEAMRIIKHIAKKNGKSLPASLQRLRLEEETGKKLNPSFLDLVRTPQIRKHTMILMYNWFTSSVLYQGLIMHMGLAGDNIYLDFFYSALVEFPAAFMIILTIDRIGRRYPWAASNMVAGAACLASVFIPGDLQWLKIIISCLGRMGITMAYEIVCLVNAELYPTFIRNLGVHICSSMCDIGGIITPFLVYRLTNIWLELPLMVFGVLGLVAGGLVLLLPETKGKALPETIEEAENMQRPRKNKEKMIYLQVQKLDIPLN
The series can be described thus: Inhibition of model substrate uptake in OCT2-overexpressing HEK293 cells. Conditions: for N-Ethyllidocaine inhibition [%] / inhibition at 5 min, 20 μM / (S,S)-Ethambutol inhibition [%]: OCT2, 20 μM inhibitor. The protocol:
as §1, §2, §3, §4, §5, §6

The next series addresses T3, OCT1 (Homo sapiens, UniProt O15245).
T3 sequence (O15245 1-554): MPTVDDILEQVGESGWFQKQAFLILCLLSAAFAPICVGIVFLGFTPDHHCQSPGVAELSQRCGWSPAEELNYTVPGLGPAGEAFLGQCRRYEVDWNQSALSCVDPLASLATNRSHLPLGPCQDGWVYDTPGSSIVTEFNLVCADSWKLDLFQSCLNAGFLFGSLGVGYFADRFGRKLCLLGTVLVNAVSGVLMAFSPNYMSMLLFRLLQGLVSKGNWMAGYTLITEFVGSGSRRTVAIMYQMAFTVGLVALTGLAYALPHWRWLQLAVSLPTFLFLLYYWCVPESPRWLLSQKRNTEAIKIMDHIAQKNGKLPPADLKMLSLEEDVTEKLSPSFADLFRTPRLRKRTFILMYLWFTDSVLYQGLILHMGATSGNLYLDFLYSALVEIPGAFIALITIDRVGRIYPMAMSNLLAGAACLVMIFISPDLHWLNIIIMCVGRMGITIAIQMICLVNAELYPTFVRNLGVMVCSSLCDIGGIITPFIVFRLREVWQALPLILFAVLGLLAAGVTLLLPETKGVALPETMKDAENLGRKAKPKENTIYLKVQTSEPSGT
The series can be described thus: Inhibition of model substrate uptake in OCT1-overexpressing HEK293 cells. It counts as cell-based. Further details: expressed in transfected cells; host or cells: HEK293. Conditions: 5 min; for inhibition at 5 min, 20 μM: human, OCT1-overexpressing HEK293 cells. The protocol:
Koepsell and Gorbulev (University of Würzburg, Germany).
Fluorescence quantification was performed in technical duplicates.

Where [1] appears, read: HEK293, 5 min, read-out: (S)-Zolmitriptan inhibition [%], OCT3, 20 μM inhibitor, 2 μM (S)-zolmitriptan, 5 min.
The mark [2] stands for this setting: HEK293, 5 min, read-out: (S,S)-Ethambutol inhibition [%], OCT3, 20 μM inhibitor, 2 μM (S,S)-ethambutol, 5 min.
[3] abbreviates: HEK293, OCT3, 20 μM inhibitor, 2 μM ASP+, 5 min, read-out: ASP+ inhibition [%].
The mark [4] stands for this setting: human, OCT2-overexpressing HEK293 cells, pH 7.4, probe (S,S)-ethambutol (2 μM), (S,S)-Ethambutol inhibition [%], 2 μM (S,S)-ethambutol, 5 min.
Where [5] appears, read: human, OCT2-overexpressing HEK293 cells, pH 7.4, probe ASP+ (2 μM), ASP+ inhibition [%], 2 μM ASP+, 5 min.
Where [6] appears, read: pH 7.4, probe (S,S)-ethambutol (2 μM), (S,S)-Ethambutol inhibition [%], OCT1, 20 μM inhibitor, 2 μM (S,S)-ethambutol.
The mark [7] stands for this setting: pH 7.4, probe ASP+ (2 μM), OCT1, 20 μM inhibitor, 2 μM ASP+, mean of three experiments, read-out: ASP+ inhibition [%].
The mark [8] stands for this setting: pH 7.4, probe sumatriptan (2 μM), OCT1, 20 μM inhibitor, 2 μM sumatriptan, read-out: Sumatriptan inhibition [%].
Setting [9] is: OCT3, 20 μM inhibitor, 2 μM (S)-zolmitriptan, 5 min.
Where [10] appears, read: human, OCT2-overexpressing HEK293 cells, pH 7.4, probe N-ethyllidocaine (2 μM), N-Ethyllidocaine inhibition [%], 2 μM N-ethyllidocaine, 5 min.
Setting [11] is: HEK293, 5 min, read-out: (S)-Zolmitriptan inhibition [%].
Where [12] appears, read: HEK293, 5 min, read-out: (S,S)-Ethambutol inhibition [%].

pIC50: −log10 of the molar value. Like-named read-outs stand apart in the source and are kept apart here.

With `CN(C)CCO[C@](C)(c1ccccc1)c1ccccn1` [(R)-Doxylamine], the figures for the inhibition at 20 µM on OCT3 (setting [1]), on OCT3 (setting [2]) and on OCT3 (setting [3]) were 17.7%, 23.4% and 12.2%, respectively. Besides, at OCT2 (2 μM N-ethyllidocaine, 5 min), the “N-Ethyllidocaine inhibition [%]” value was -13.8%. In addition, the inhibition at 5 min, 20 μM against OCT2 (setting [4]) was determined as 26.2%; at OCT2 (setting [5]) it was 73.2%; at OCT1 (setting [6]), 96%; on OCT1 (setting [7]) it was 63.6%; at OCT1 (setting [8]), 90.8%. For the same compound, the pIC50 at OCT1 (OCT1, Table S5, 2 μM ASP+ or ethambutol as model substrate, read-out: IC50) was 4.65.
As for `OC[C@H](O)CN1CCN(c2ccccc2)CC1` [(R)-Dropropizine], the inhibition at 20 µM was 5.8% at OCT3 (setting [2]) and 26.4% at OCT3 (setting [3]). For the same compound, the “(S)-Zolmitriptan inhibition [%]” value on OCT3 (setting [9]) is on record as -30.2%. At OCT2 (IC50, OCT2, Table S5, 2 μM ASP+ as model substrate, 5 min), the pIC50 was 4.09. Moreover, on OCT2 (human, OCT2-overexpressing HEK293 cells, pH 7.4), the selectivity ratio at 5 min was 1.4. Besides, the inhibition at 5 min, 20 μM came to 28% against OCT2 (setting [4]); 40.8% on OCT2 (setting [5]); 8% at OCT2 (setting [10]); 30.1% against OCT1 (setting [6]); 26.2% on OCT1 (setting [7]); 41% at OCT1 (setting [8]).
Turning to `CNCC[C@@H](Oc1cccc2ccccc12)c1cccs1` [(R)-Duloxetine], the inhibition at 20 µM on OCT3 (setting [11]) came out at 1.6%; at OCT3 (setting [12]), 16.7%; at OCT3 (HEK293, read-out: ASP+ inhibition [%]), 3.8%. Further, at OCT2 (IC50), the pIC50 was 4.60. For the same compound, the inhibition at 5 min, 20 μM turned out to be 33.2% against OCT2 (setting [4]); 53.3% against OCT2 (setting [5]); 50.1% at OCT2 (setting [10]); 85.1% at OCT1 (setting [6]); 41.3% at OCT1 (setting [7]); 86.8% on OCT1 (setting [8]).
As for `CNCC[C@@H](Oc1ccc(C(F)(F)F)cc1)c1ccccc1` [(R)-Fluoxetine], the “ASP+ inhibition [%]” value at OCT3 is -6.0%. Further, the inhibition at 20 µM was 17% at OCT3 (setting [11]) and 9.6% at OCT3 (setting [12]). In addition, the “(S,S)-Ethambutol inhibition [%]” value on OCT2 (2 μM (S,S)-ethambutol, 5 min) was 28.2%. The “N-Ethyllidocaine inhibition [%]” value at OCT2 (2 μM N-ethyllidocaine, 5 min) amounted to 48.9%. In addition, the inhibition at 5 min, 20 μM on OCT2 (setting [5]) turned out to be 65.6%; against OCT1 (setting [6]) it was 77.5%; at OCT1 (setting [7]) it was 45.6%; on OCT1 (setting [8]) it was 83.4%.
For the compound `CC(C)Cc1ccc([C@@H](C)C(=O)O)cc1` [(R)-Ibuprofen], the inhibition at 20 µM at OCT3 (setting [1]) was -1.9%; on OCT3 (setting [2]), 3.2%; on OCT3 (setting [3]) it was 12.1%. For the same compound, the inhibition at 5 min, 20 μM against OCT2 (setting [4]) was 7%; on OCT2 (setting [5]), 11.5%; against OCT2 (setting [10]), 7.9%; at OCT1 (setting [6]), 5.6%; at OCT1 (setting [7]), 8.3%; at OCT1 (setting [8]) it was -7.2%.
With `Cc1cccc(C)c1OC[C@@H](C)N` [(R)-Mexiletine], the inhibition at 20 µM is 25% at OCT3 (setting [1]), 11.6% on OCT3 (setting [2]) and -17.2% on OCT3 (setting [3]). Moreover, the inhibition at 5 min, 20 μM was 52.1% against OCT2 (setting [4]); 47% at OCT2 (setting [5]); 52.2% against OCT2 (setting [10]); 79.6% at OCT1 (setting [6]); 30.4% on OCT1 (setting [7]); 85.6% on OCT1 (setting [8]).
Regarding `NC[C@H](O)c1ccc(O)c(O)c1` [(R)-Norepinephrine], the “(S)-Zolmitriptan inhibition [%]” value at OCT3 (setting [9]) is -4.3%. For the same compound, the “(S,S)-Ethambutol inhibition [%]” value on OCT3 (OCT3, 20 μM inhibitor, 2 μM (S,S)-ethambutol, 5 min) is reported as 5.7%; at OCT2 (2 μM (S,S)-ethambutol, 5 min), -1.8%; at OCT1 (OCT1, 20 μM inhibitor, 2 μM (S,S)-ethambutol), -19.9%. Also, the “ASP+ inhibition [%]” value was 8.4% on OCT3 (OCT3, 20 μM inhibitor, 2 μM ASP+, 5 min) and -4.8% at OCT1 (OCT1, 20 μM inhibitor, 2 μM ASP+, mean of three experiments). Moreover, the inhibition at 5 min, 20 μM on OCT2 (setting [5]) turned out to be 23.1%; against OCT2 (setting [10]) it was 5.4%. On OCT1 (OCT1, 20 μM inhibitor, 2 μM sumatriptan), the “Sumatriptan inhibition [%]” value was -1.3%.
